Assay results: patent US20100075960A1 (priority 2006, published 2010)

How the values were obtained:
HCT116 = assay: Inhibition of cell proliferation, HCT116; type: cell-based; conditions: Homo sapiens, HCT-116; 72 h treatment; methylene blue or CellTiter-Glo
COLO205 = assay: Inhibition of cell proliferation, COLO205; type: cell-based; conditions: Homo sapiens, COLO 205; Colon; 72 h; methylene blue or CellTiter-Glo
Experimental: (§1) II. Inhibition of Cell Proliferation by PLK1 Inhibitors.
(§2) Exponentially growing cell lines of different tumor origins, cultured in appropriate media containing 10% fetal bovine serum at 37° C. in a 5% CO2 incubator were plated in 96 or 384-well plates. Twenty four hours post-plating, cells were treated with different concentrations of test compounds ranging from 20 μM to 0.04 nM. Several wells were left untreated as a control. Seventy two hours post-treatment, cell numbers were determined using different techniques; 100 μl per well of methylene blue (Sigma M9140) (0.5% in 50:50 Ethanol:water), or 10-100 μl per well of CellTiter-Glo (Promega #G7573), depending on well size. For methylene blue staining, stain was incubated at room temperature for 30 minutes before plates were rinsed and dye solubilized in 1% N-lauroyl sarcosine, sodium salt, (Sigma L5125, in PBS). Plates were read on a microplate reader, measuring the OD at 620 nm. For CellTiter-Glo, plates were incubated at room temperature for 15 minutes and the chemiluminescent signal was read on the Victor V or Envison 2100 reader.
(§3) Percent inhibition of cell growth was expressed as percent proliferation relative to 100% proliferation (control). Concentration of test compound that inhibited 50% of cell growth (IC50) was determined by 4 parameter fit of data using XLfit, (value of no cell control was substracted from all samples for background). The data are shown in Table 1 and Table 2 below and represent a compilation of several different experiments each performed using the general parameters outlined above, although minor variations may have been employed in some instances, in Table 1 and Table 2, +=IC50>1 μM; ++=IC50 0.5-1 μM: +++=IC50<0.5 μM.

HT29 = assay: Inhibition of cell proliferation, HT29; type: cell-based; conditions: Homo sapiens, HT-29; Colon; 72 h; methylene blue or CellTiter-Glo
Experimental: as §1, §2, §3

MX-1 = assay: Inhibition of cell proliferation, MX-1; type: cell-based; conditions: Homo sapiens, MX1; Breast; 72 h; methylene blue or CellTiter-Glo
Experimental: as §1, §2, §3

SKOV-3 = assay: Inhibition of cell proliferation, SKOV-3; type: cell-based; conditions: Homo sapiens, SK-OV-3; Ovarian; 72 h; methylene blue or CellTiter-Glo
Experimental: as §1, §2, §3

LNCaP = assay: Inhibition of cell proliferation, LNCaP; type: cell-based; conditions: Homo sapiens, Prostate, 72 h, methylene blue or CellTiter-Glo
Experimental: as §1, §2
(§4) Percent inhibition of cell growth was expressed as percent proliferation relative to 100% proliferation (control). […]

H1299 = assay: Inhibition of cell proliferation, H1299; type: cell-based; conditions: Homo sapiens, NCI-H1299; Lung; 72 h; methylene blue or CellTiter-Glo
Experimental: as §1, §2, §4

Hela = assay: Inhibition of cell proliferation, Hela; type: cell-based; conditions: Homo sapiens, Cervical, 72 h, methylene blue or CellTiter-Glo
Experimental: as §1, §2, §4

HN5 = assay: Inhibition of cell proliferation, HN5; type: cell-based; conditions: Homo sapiens; Head and neck; Table 2 first HN5 line; 72 h
Experimental: as §1, §2, §3

MCF7 = assay: Inhibition of cell proliferation, MCF7; type: cell-based; conditions: Homo sapiens, Breast, 72 h, methylene blue or CellTiter-Glo
Experimental: as §1, §2, §4

MDA-MB-468 = assay: Inhibition of cell proliferation, MDA-MB-468; type: cell-based; conditions: Homo sapiens, Breast, 72 h, methylene blue or CellTiter-Glo
Experimental: as §1, §2, §4

RPMI 8226 = assay: Inhibition of cell proliferation, RPMI 8226; type: cell-based; conditions: Homo sapiens, leukemia, 72 h, methylene blue or CellTiter-Glo
Experimental: as §1, §2, §4

A549-L = assay: Inhibition of cell proliferation, A549-L; type: cell-based; conditions: lung; 72 h; methylene blue or CellTiter-Glo
Experimental: as §1, §2, §3

P388 = assay: Inhibition of cell proliferation, P388; type: cell-based; conditions: Mouse leukemia, 72 h, methylene blue or CellTiter-Glo
Experimental: as §1, §2, §3

PLK1 kinase domain = target: T1, PLK1 kinase domain (Homo sapiens, UniProt P53350); assay: Assay for inhibition of PLK1 (33P SPA kinase assay); type: biochemical; conditions: 2 nM PLK1 kinase domain, 1 μM ATP, 1 μM substrate peptide; read-out: PLK1 pIC50 (converted)
T1 construct: His-tagged PLK kinase domain (amino acids 21-346 preceded by MKKGHHHHHHD); made in house; host or cells: baculovirus-infected T. ni insect cells
T1 sequence (P53350 21-346): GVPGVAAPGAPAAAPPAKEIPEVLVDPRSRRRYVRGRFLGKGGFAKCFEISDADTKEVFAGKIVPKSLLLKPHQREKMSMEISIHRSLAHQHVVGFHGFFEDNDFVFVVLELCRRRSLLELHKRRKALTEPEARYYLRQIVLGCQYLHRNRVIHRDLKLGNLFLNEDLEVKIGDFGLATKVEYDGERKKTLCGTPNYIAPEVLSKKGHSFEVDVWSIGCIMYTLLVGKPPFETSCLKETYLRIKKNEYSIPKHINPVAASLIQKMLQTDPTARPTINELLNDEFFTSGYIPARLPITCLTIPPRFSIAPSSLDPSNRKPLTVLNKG
Experimental: I. Assay for Inhibition of PLK1
A. Preparation of 6× N-Terminal His-Tagged PLK Kinase Domain
6× N-terminal His-tagged PLK kinase domain (amino acids 21-346 preceded by MKKGHHHHHHD) SEQ ID: No. 1. was prepared from baculovirus infected T. ni cells under polyhedrin promoter control. All procedures were performed at 4° C. Cells were lysed in 50 mM HEPES, 200 mM NaCl, 50 mM imidazole, 5% glycerol; pH 7.5. The homogenate was centrifuged at 14K rpm in a SLA-1500 rotor for 1 br and the supernatant filtered through a 1.2 micron filter. The supernatant was loaded onto a Nickel chelating Sepharose (Amersham Pharmacia) column and washed with lysis buffer. Protein was eluted using 20%, 30% and 100% buffer B steps where buffer B was 50 mM HEPES, 200 mM NaCl, 300 mM imidazole, 5% glycerol; pH 7.5. Fractions containing PLK were determined by SOS-PAGE. Fractions containing PLK were diluted five-fold with 50 mM HEPES, 1 mM DTT, 5% glycerol; pH 7.5, then loaded on an SP Sepharose (Amersham Pharmacia) column. After washing the column with 50 mM HEPES, 1 mM DTT, 5% glycerol; pH 7.5, PLK was step eluted with 50 mM HEPES, 1 mM DTT, 500 mM NaCl; 5% glycerol; pH 7.5. PLK was concentrated using a 10 kDa molecular weight cutoff membrane and then loaded onto a Superdex 200 gel filtration (Amersham Pharmacia) column equilibrated in 25 mM HEPES, 1 mM DTT, 500 mM NaCl, 5% glycerol; pH 7.5. Fractions containing PLK were determined by SDS-PAGE. PLK was pooled, aliquoted and stored at −80° C. Samples were quality controlled using mass spectrometry, N-terminal sequencing and amino acid analysis.
B. Enzyme Activity ± Inhibitors was Determined as Follows:
All measurements were obtained under conditions where signal production increased linearly with time and enzyme. Test compounds were added to white 384-well assay plates (0.1 μL for 10 μL and some 20 μL assays, 1 μL for some 20 μL assays) at variable known concentrations in 100% DMSO. DMSO (1-5% final, as appropriate) and EDTA (65 mM in reaction) as controls. Reaction Mix was prepared as follows at 22° C.: • 25 mM HEPES, pH 7.2 • 15 mM MgCl2 • 1 μM ATP • 0.05 μCi/well ^33P-γ ATP (10 Ci/mMol) • 1 μM substrate peptide (Biotin-Ahx-SFNDTLDFD) SEQ ID:No. 2. • 0.15 mg/mL BSA • 1 mM DTT • 2 nM PLK1 kinase domain (added last)
Reaction Mix (10 or 20 μL) was quickly added to each well immediately following addition of enzyme via automated liquid handlers and incubated 1-1.5 h at 22° C. […] Plates were sealed with dear plastic seals, spun at 500×g for 1 min or settled overnight, and counted in Packard TopCount for 30 seconds/well (regular SPA) or imaged using a Viewlux imager (LeadSeeker SPA). […]

Compound	IC50 (HCT116) [µM]	IC50 (COLO205) [µM]	IC50 (HT29) [µM]	IC50 (MX-1) [µM]	IC50 (SKOV-3) [µM]	IC50 (P388) [µM]	IC50 (PLK1 kinase domain) [µM]	also measured
C[C@@H](Oc1cc(-n2cnc3cc(-c4cnn(C)c4)ccc32)sc1C(N)=O)c1cccc(OC2CCN(CCS(C)(=O)=O)CC2)c1Cl [Example 31, 3-({(1R)-1-[2-Chloro-3-({1-[2-(methylsulfonyl)ethyl]-4-piperidinyl}oxy)phenyl]ethyl}oxy)-5-[5-(1-methyl-1H-pyrazol-4-yl)-1H-benzimidazol-1-yl]-2-thiophenecarboxamide]	< 0.5	< 0.5	< 0.5	< 0.5	< 0.5	–	–	IC50 (LNCaP): 0.5 to 1 µM; IC50 (H1299): < 0.5 µM; IC50 (Hela): < 0.5 µM; IC50 (HN5): < 0.5 µM; IC50 (MCF7): < 0.5 µM; IC50 (MDA-MB-468): < 0.5 µM; IC50 (RPMI 8226): < 0.5 µM
C[C@@H](Oc1cc(-n2cnc3cc(-c4cnn(C)c4)ccc32)sc1C(N)=O)c1cccc(OCC2CCN(C)CC2)c1Cl [Example 45, 3-{[(1R)-1-(2-Chloro-3-{[(1-methyl-4-piperidinyl)methyl]oxy}phenyl)ethyl]oxy}-5-[5-(1-methyl-1H-pyrazol-4-yl)-1H-benzimidazol-1-yl]-2-thiophenecarboxamide]	< 0.5	< 0.5	< 0.5	< 0.5	< 0.5	< 0.5	–	IC50 (A549-L): < 0.5 µM
C[C@@H](Oc1cc(-n2cnc3cc(-c4cnn(C)c4)ccc32)sc1C(N)=O)c1cccc(OC2CCNCC2)c1Cl [Example 47, 3-({(1R)-1-[2-Chloro-3-(4-piperidinyloxy)phenyl]ethyl}oxy)-5-[5-(1-methyl-1H-pyrazol-4-yl)-1H-benzimidazol-1-yl]-2-thiophenecarboxamide]	< 0.5	< 0.5	< 0.5	< 0.5	< 0.5	< 0.5	–	IC50 (A549-L): < 0.5 µM
C[C@@H](Oc1cc(-n2cnc3ccc(CS(C)(=O)=O)cc32)sc1C(N)=O)c1cccc(OC[C@H]2CCCN2C)c1Cl [Example 58, 3-({(1R)-1-[2-chloro-3-({[(2R)-1-methyl-2-pyrrolidinyl]methyl}oxy)phenyl]ethyl}oxy)-5-{6-[(methylsulfonyl)methyl]-1H-benzimidazol-1-yl}-2-thiophenecarboxamide]	> 1	–	–	–	–	–	< 0.1	–
C[C@@H](Oc1cc(-n2cnc3cc(S(C)(=O)=O)ccc32)sc1C(N)=O)c1cccc(OC2CCNCC2)c1Cl [Example 59, 3-({(1R)-1-[2-chloro-3-(4-piperidinyloxy)phenyl]ethyl}oxy)-5-[5-(methylsulfonyl)-1H-benzimidazol-1-yl]-2-thiophenecarboxamide]	> 1	–	–	–	–	–	< 0.1	–
C[C@@H](Oc1cc(-n2cnc3ccc(S(C)(=O)=O)cc32)sc1C(N)=O)c1cccc(OC2CCNCC2)c1Cl [Example 60, 3-({(1R)-1-[2-chloro-3-(4-piperidinyloxy)phenyl]ethyl}oxy)-5-[6-(methylsulfonyl)-1H-benzimidazol-1-yl]-2-thiophenecarboxamide]	> 1	–	–	–	–	–	< 0.1	–
C[C@@H](Oc1cc(-n2cnc3cc(F)c(F)cc32)sc1C(N)=O)c1cccc(OC2CCN(C)CC2)c1Cl [Example 66, 3-[((1R)-1-(2-chloro-3-[(1-methyl-4-piperidinyl)oxy]phenyl}ethyl)-oxy]-5-(5,6-difluoro-1H-benzimidazol-1-yl)-2-thiophenecarboxamide]	< 0.5	< 0.5	< 0.5	< 0.5	< 0.5	< 0.5	–	–
CC(Oc1cc(-n2cnc3cc(-c4cnn(C)c4)ccc32)sc1C(N)=O)c1cc(OC2CCN(C)CC2)ccn1 (stereo not shown) [Example 86, 3-[(1-{4-[(1-Methyl-4-piperidinyl)oxy]-2-pyridinyl}ethyl)oxy]-5-[5-(1-methyl-1H-pyrazol-4-yl)-1H-benzimidazol-1-yl]-2-thiophenecarboxamide]	> 1	–	–	–	–	–	< 0.1	–
